Laboratory results taken from ChEMBL document CHEMBL1136148, “Tetrabiphenylporphyrin-based receptors for protein surfaces show sub-nanomolar affinity and enhance unfolding” (Bioorg Med Chem Lett, 2003).

Assay: Binding ability of the receptor to the surface of Cytochrome c and activity expressed as Dissociation constant(Kd)
Design: species or system Equus caballus
COC(=O)[C@H](CC(=O)O)NC(=O)c1cc(C(=O)N[C@@H](CC(=O)O)C(=O)OC)cc(-c2ccc(-c3c4nc(c(-c5ccc(-c6cc(C(=O)N[C@@H](CC(=O)O)C(=O)OC)cc(C(=O)N[C@@H](CC(=O)O)C(=O)OC)c6)cc5)c5ccc([nH]5)c(-c5ccc(-c6cc(C(=O)N[C@@H](CC(=O)O)C(=O)OC)cc(C(=O)N[C@H](CC(=O)O)C(=O)OC)c6)cc5)c5nc(c(-c6ccc(-c7cc(C(=O)N[C@@H](CC(=O)O)C(=O)OC)cc(C(=O)N[C@@H](CC(=O)O)C(=O)OC)c7)cc6)c6ccc3[nH]6)C=C5)C=C4)cc2)c1 showed a Kd of 1.7 µM. With O=C(O)C[C@H](NC(=O)c1cc(C(=O)N[C@@H](CC(=O)O)C(=O)O)cc(-c2ccc(-c3c4nc(c(-c5ccc(-c6cc(C(=O)N[C@@H](CC(=O)O)C(=O)O)cc(C(=O)N[C@@H](CC(=O)O)C(=O)O)c6)cc5)c5ccc([nH]5)c(-c5ccc(-c6cc(C(=O)N[C@@H](CC(=O)O)C(=O)O)cc(C(=O)N[C@H](CC(=O)O)C(=O)O)c6)cc5)c5nc(c(-c6ccc(-c7cc(C(=O)N[C@@H](CC(=O)O)C(=O)O)cc(C(=O)N[C@@H](CC(=O)O)C(=O)O)c7)cc6)c6ccc3[nH]6)C=C5)C=C4)cc2)c1)C(=O)O the Kd was 0.00067 µM. O=C(O)c1cc(C(=O)O)cc(-c2ccc(-c3c4nc(c(-c5ccc(-c6cc(C(=O)O)cc(C(=O)O)c6)cc5)c5ccc([nH]5)c(-c5ccc(-c6cc(C(=O)O)cc(C(=O)O)c6)cc5)c5ccc([nH]5)c(-c5ccc(-c6cc(C(=O)O)cc(C(=O)O)c6)cc5)c5nc3C=C5)C=C4)cc2)c1 gave a Kd of 1.5 µM. Compound O=C(O)c1ccc(-c2ccc(-c3c4nc(c(-c5ccc(-c6ccc(C(=O)O)cc6)cc5)c5ccc([nH]5)c(-c5ccc(-c6ccc(C(=O)O)cc6)cc5)c5ccc([nH]5)c(-c5ccc(-c6ccc(C(=O)O)cc6)cc5)c5nc3C=C5)C=C4)cc2)cc1 has a Kd of 17 µM.
